In patent US11046889B2, “Polymerizable compound and optically anisotropic body” (DIC Corporation, priority 2015, dated 2021):

Assay: Solubility check of 20 wt % solutions in organic solvents
Type: physicochemical
Parameters: key: A: the compound dissolves at room temperature; B: the compound does not dissolve at room temperature but dissolves when heated to 60° C.; the compound does not dissolve even when heated to 60° C
Settings: room temperature or heated to 60° C.; for Results of Solubility Chloroform: 20 wt % solution in chloroform; for Results of Solubility Cyclopentanone: 20 wt % solution in cyclopentanone; for Results of Solubility MEK: 20 wt % solution in methyl ethyl ketone (MEK); for Results of Solubility MIBK: 20 wt % solution in methyl isobutyl ketone (MIBK); for Results of Solubility Toluene: 20 wt % solution in toluene; for Results of Solubility Trichloroethane: 20 wt % solution in trichloroethane
Method: 20 wt % solutions of each of the compounds to be evaluated in chloroform, trichloroethane, cyclopentanone, methyl ethyl ketone (MEK), methyl isobutyl ketone (MIBK), and toluene were prepared to check the solubilities of the compound to be evaluated.

| Compound | Results of Solubility Chloroform | Results of Solubility Cyclopentanone | Results of Solubility MEK | Results of Solubility MIBK | Results of Solubility Toluene | Results of Solubility Trichloroethane |
| --- | --- | --- | --- | --- | --- | --- |
| C=CC(=O)OCCCCOC(=O)C1CCC(C(=O)OC2CCC(C(=O)Oc3ccc(OC(=O)C4CCC(OC(=O)C5CCC(C(=O)OCCCCOC(=O)C=C)CC5)CC4)c4c3SC(=C(C#N)C(=O)OCCOCCOC(=O)C=C)S4)CC2)CC1 (stereo not drawn) [Compound I-15] | A | B | B | C | B | A |
| C=C(C)C(=O)OCCCCCCOc1ccc(OC(=O)C2CCC(COc3ccc(OCC4CCC(C(=O)Oc5ccc(OCCCCCCOC(=O)C(=C)C)cc5)CC4)c(/C=N/N(CCOCCOC)c4nc5ccccc5s4)c3)CC2)cc1 (stereo not drawn) [Compound I-16] | A | A | B | B | A | A |
| C=CC(=O)OCCCCCCOc1ccc(OC(=O)C2CCC(C(=O)Oc3ccc(C4CCC(C5CCC(CCC)CC5)CC4)cc3/C=N/N(CCOCCOC)c3nc4ccccc4s3)CC2)cc1 (stereo not drawn) [Compound I-17] | A | B | C | C | B | B |
| C=CC(=O)OCCCCCCOc1ccc(OC(=O)C2CCC(C(=O)Oc3ccc(OC(=O)C4CCC(C(=O)Oc5ccc(OCCCCCCOC(=O)C=C)cc5)CC4)c(/C=N/N(COCCOC)c4nc5ccccc5s4)c3)CC2)cc1 (stereo not drawn) [Compound R-1, reference compound] | A | B | C | C | B | B |
| C=CC(=O)OCCCCCCOc1ccc(OC(=O)C2CCC(C(=O)Oc3ccc(OC(=O)C4CCC(C(=O)Oc5ccc(OCCCCCCOC(=O)C=C)cc5)CC4)c4sc(-c5ccc([N+](=O)[O-])cc5)nc34)CC2)cc1 (stereo not drawn) [Compound R-2, reference compound] | B | C | C | C | B | B |
| C=CC(=O)OCCCOC(=O)C1CCC(C(=O)OC2CCC(C(=O)Oc3ccc(OC(=O)C4CCC(OC(=O)C5CCC(C(=O)OCCCOC(=O)C=C)CC5)CC4)c4c3SC(=C3C(=O)N(c5ccccc5)N=C3C(=O)OCC)S4)CC2)CC1 (stereo not drawn) [Compound R-3, reference compound] | A | C | C | C | B | B |
